Drawing on patent publication US7893074B2, “2, 4-pyrimidinediamines useful in the treatment of neoplastic diseases, inflammatory and immune system disorders” (Novartis AG, priority 2003, dated 2011), this text covers IC50 for 15 compounds.

A value given as a limit tells only on which side of the number the result lay.

Experiment [1] addresses Focal Adhesion Kinase (FAK) (Homo sapiens, UniProt Q05397). The experiment can be described thus: FAK assay system (Focal Adhesion Kinase inhibition). Particulars: read-out: FAK IC50. Format: biochemical.
Experiment [2] concerns the target IGF-IR (Homo sapiens, UniProt P08069). The experiment can be described thus: Cellular Capture ELISA of IGF-I induced autophosphorylation of the IGF-IR. The class given is cell-based. Particulars: read-out: IGF-1R IC50. As to the method:
In this assay the activity of the compounds of the invention against Insulin-like growth factor I (IGF-I) induced autophosphorylation of the IGF-IR is determined.
(In an ELISA, binding on a coated surface is turned into a signal by an enzyme label.)

Experiment [3] has as its system Mouse mammary carcinoma 4T1 cells. The experiment can be described thus: Anchorage-independent tumor cell growth assay. The class given is cell-based. Particulars: Mus musculus, 4T1. As to the method:
Cells are cultured for 2 h and inhibitors are added at various concentrations in a final concentration of 0.1% DMSO. After 48 h, cell growth is assayed with the cell counting kit-8 (Wako Pure Chemical), which uses a water soluble tetrazolium salt WST8. Twenty μL of the reagent is added into each well and cells are further cultured for 2 h. The optical density is measured at 450 nm.

Experiment [4] addresses FAK (Mus musculus, UniProt P34152). The experiment can be described thus: Phos IC50 (phosphorylation). The class given is cell-based.

A word on the IC50: it is the concentration that gives 50% inhibition.

Sequence of IGF-IR (P08069 31-1367): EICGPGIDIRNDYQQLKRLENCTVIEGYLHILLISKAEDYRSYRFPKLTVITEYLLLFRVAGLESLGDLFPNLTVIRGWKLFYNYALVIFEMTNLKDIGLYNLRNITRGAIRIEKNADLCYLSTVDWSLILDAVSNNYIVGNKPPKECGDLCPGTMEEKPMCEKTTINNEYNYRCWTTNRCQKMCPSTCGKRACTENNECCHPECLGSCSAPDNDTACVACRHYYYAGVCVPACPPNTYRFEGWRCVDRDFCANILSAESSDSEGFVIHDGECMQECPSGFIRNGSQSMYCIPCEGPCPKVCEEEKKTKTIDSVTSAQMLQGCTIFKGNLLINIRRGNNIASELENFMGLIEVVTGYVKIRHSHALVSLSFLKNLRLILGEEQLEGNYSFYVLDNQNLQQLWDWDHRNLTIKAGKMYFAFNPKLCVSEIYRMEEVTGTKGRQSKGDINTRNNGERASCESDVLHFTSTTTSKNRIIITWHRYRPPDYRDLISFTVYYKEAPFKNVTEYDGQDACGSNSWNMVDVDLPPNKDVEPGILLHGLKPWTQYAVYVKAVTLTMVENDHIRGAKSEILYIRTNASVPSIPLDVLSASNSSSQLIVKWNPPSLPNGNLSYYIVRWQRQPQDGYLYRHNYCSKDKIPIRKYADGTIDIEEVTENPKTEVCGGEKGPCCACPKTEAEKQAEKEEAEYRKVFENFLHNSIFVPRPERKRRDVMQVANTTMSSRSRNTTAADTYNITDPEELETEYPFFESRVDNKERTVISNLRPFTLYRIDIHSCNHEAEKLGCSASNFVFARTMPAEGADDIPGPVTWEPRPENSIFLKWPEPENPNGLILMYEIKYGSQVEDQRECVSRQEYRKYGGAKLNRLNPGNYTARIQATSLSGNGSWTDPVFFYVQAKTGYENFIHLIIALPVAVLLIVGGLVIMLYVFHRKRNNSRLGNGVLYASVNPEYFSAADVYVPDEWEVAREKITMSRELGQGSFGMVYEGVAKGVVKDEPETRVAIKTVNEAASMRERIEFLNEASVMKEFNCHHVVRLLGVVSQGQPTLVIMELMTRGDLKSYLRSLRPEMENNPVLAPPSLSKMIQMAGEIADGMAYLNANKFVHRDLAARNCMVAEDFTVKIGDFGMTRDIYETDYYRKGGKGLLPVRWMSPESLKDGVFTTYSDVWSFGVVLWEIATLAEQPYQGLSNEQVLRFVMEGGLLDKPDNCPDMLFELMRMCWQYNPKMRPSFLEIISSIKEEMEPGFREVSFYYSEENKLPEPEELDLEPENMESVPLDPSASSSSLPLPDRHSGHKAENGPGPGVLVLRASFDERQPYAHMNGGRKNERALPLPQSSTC
Sequence of Focal Adhesion Kinase (FAK) (Q05397 384-706): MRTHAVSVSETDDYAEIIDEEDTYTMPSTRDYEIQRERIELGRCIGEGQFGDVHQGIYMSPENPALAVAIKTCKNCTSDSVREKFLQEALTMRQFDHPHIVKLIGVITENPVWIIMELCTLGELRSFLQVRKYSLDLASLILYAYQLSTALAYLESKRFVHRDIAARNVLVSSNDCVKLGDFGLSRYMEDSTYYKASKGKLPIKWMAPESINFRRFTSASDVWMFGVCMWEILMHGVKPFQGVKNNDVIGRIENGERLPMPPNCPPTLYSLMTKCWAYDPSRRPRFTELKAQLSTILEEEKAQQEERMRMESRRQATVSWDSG
Sequence of FAK (P34152 2-1052): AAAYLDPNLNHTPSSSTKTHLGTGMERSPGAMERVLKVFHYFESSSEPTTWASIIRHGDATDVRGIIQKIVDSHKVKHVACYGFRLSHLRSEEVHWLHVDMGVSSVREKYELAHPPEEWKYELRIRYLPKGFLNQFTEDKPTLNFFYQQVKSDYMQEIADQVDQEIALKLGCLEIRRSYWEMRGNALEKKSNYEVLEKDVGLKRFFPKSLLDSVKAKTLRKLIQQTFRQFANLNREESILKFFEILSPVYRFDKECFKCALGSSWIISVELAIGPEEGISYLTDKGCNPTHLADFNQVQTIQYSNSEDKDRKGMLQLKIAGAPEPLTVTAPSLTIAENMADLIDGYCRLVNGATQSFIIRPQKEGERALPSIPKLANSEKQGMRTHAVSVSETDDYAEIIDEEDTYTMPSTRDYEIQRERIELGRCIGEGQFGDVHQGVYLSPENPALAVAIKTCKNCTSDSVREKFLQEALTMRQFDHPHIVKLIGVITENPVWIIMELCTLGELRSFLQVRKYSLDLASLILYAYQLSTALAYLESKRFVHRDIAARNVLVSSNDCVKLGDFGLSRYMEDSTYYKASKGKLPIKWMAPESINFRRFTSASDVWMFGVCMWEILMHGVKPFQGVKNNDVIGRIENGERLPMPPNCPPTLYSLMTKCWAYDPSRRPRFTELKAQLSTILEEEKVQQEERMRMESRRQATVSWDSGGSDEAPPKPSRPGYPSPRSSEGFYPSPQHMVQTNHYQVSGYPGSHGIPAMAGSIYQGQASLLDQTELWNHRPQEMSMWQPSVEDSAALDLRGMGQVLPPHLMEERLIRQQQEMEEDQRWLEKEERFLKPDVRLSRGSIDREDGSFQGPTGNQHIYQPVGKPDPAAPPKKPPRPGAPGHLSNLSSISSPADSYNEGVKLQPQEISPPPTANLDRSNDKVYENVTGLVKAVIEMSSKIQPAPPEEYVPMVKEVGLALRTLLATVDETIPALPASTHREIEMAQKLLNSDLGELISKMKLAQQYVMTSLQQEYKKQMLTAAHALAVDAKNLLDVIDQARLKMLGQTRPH

Consider `CNS(=O)(=O)c1ccccc1Nc1nc(Nc2ccc(N3CCNCC3)cc2OC)ncc1Cl` [Example 20-7], for which the IC50 stood at 3 nM in experiment [1], 380 nM in experiment [2], 50 nM in experiment [3] and 100 nM in experiment [4].

Regarding `CCOc1cc(N2CCOCC2)ccc1Nc1ncc(Br)c(Nc2ccccc2S(=O)(=O)NC)n1` [Example 3-58], the IC50 in experiment [1] worked out at 21 nM; in experiment [2] it was 140 nM; in experiment [3], 300 nM; in experiment [4] it was 80 nM.

Take `COc1cc(OC2CCN(C)CC2)ccc1Nc1ncc(Cl)c(Nc2ccccc2S(=O)(=O)NC2CCC2)n1` [Example 24-2]: the IC50 in experiment [1] is 2.1 nM; in experiment [2], 390 nM; in experiment [3], 110 nM; in experiment [4] it was 500 nM.

With `CNS(=O)(=O)c1ccccc1Nc1nc(Nc2ccc(C)cc2OC)ncc1Br` [Example 3-5], the half-inhibitory concentration (IC50) in experiment [1] is 21 nM; in experiment [2], more than 10000 nM; in experiment [3] it was 2000 nM; in experiment [4], 170 nM.

On to `COc1cc(N2CCCC(C(N)=O)C2)ccc1Nc1ncc(Cl)c(Nc2ccccc2S(=O)(=O)C(C)C)n1` (stereo not drawn) [Example 28-1], for which the IC50 was 12 nM in experiment [1], 300 nM in experiment [2], 460 nM in experiment [3] and 300 nM in experiment [4].

`COc1cc(N2CCN(CCO)CC2)ccc1Nc1ncc(Cl)c(Nc2ccccc2S(=O)(=O)C(C)C)n1` [Example 28-2]: the IC50 in experiment [1] amounted to 1.9 nM; in experiment [2] it was 3710 nM; in experiment [3] it was 440 nM; in experiment [4], 80 nM.

As to `CNS(=O)(=O)c1cc(F)ccc1Nc1nc(Nc2ccc(N3CCOCC3)cc2OC)ncc1Br` [Example 52, 2-[5-Bromo-2-(2-methoxy-4-morpholin-4-yl-phenylamino)-pyrimidin-4-ylamino]-5-fluoro-N-methyl-benzenesulfonamide], the IC50 in experiment [1] is 13 nM; in experiment [2] it was less than 80 nM; in experiment [3] it was 410 nM; in experiment [4], 200 nM.

In the case of `CNS(=O)(=O)c1ccccc1Nc1nc(Nc2cc(F)ccc2OC)ncc1Br` [Example 3-81], the IC50 in experiment [1] was 21 nM; in experiment [2] it was more than 10000 nM; in experiment [3], 980 nM; in experiment [4], 520 nM.

Regarding `CCCS(=O)(=O)c1ccccc1Nc1nc(Nc2ccc(OC3CCN(C)CC3)cc2OC)ncc1Cl` [Example 26-26], the IC50 in experiment [1] amounted to 1.9 nM; in experiment [2] it was 340 nM; in experiment [3], 70 nM; in experiment [4] it was 200 nM.

As for `CNC(=O)c1ccccc1Nc1nc(Nc2ccc(N3CCN(C)CC3)cc2OC)ncc1Cl` [Example 7-3], the IC50 in experiment [1] was determined as 2.9 nM; in experiment [2] it was 270 nM; in experiment [3], 390 nM; in experiment [4], 300 nM.

Consider `CNS(=O)(=O)c1ccccc1Nc1nc(Nc2ccc(N3CCC(C(N)=O)CC3)cc2OC)ncc1Br` [Example 3-43], for which the IC50 worked out at 5.6 nM in experiment [1], 270 nM in experiment [2], 110 nM in experiment [3] and 200 nM in experiment [4].

On to `CCCS(=O)(=O)c1ccccc1Nc1nc(Nc2ccc(N3CCOCC3)cc2OC)ncc1Cl` [Example 26-1], for which the IC50 in experiment [1] is 4.4 nM; in experiment [2] it was 290 nM; in experiment [3], 350 nM; in experiment [4], 50 nM.

Turning to `CCCS(=O)(=O)c1ccccc1Nc1nc(Nc2cc(N3CCN(C(C)=O)CC3)ccc2OC)ncc1Cl` [Example 26-15], the IC50 in experiment [1] turned out to be 6.9 nM; in experiment [2], 70 nM; in experiment [3], 80 nM; in experiment [4], 1200 nM.

Take `CNC(=O)c1ccccc1Nc1nc(Nc2ccc(N3CCC(N4CCN(C)CC4)CC3)cc2OC)ncc1Cl` [Example 7-14]: the IC50 in experiment [1] was determined as 7.6 nM; in experiment [2], 330 nM; in experiment [3], 360 nM; in experiment [4] it was 300 nM.

Turning to `CCCS(=O)(=O)c1ccccc1Nc1nc(Nc2ccc(N3CCN(C(C)C)CC3)cc2OC)ncc1Cl` [Example 26-23], the IC50 in experiment [1] was found to be 1.4 nM; in experiment [2], 180 nM; in experiment [3], 90 nM; in experiment [4], 300 nM.
